Laboratory results published in patent US8961959B2, “Glucosylceramide synthase inhibitors and therapeutic methods using the same” (The Regents of the University of Michigan, priority 2011, dated 2015).

Tests used:
[1] = molecular target: T1, glucosylceramide synthase (GCS) (Canis lupus familiaris, UniProt A0A8I3MXG6); assay: GCS activity, broken cell (MDCK cell homogenate) assay; type: biochemical, canine
T1 construct: Madin-Darby canine kidney (MDCK) cell homogenates (120 μg of protein) were incubated; endogenous in cells; host or cells: MDCK (Madin-Darby canine kidney) cell homogenate
T1 sequence (A0A8I3MXG6 1-394): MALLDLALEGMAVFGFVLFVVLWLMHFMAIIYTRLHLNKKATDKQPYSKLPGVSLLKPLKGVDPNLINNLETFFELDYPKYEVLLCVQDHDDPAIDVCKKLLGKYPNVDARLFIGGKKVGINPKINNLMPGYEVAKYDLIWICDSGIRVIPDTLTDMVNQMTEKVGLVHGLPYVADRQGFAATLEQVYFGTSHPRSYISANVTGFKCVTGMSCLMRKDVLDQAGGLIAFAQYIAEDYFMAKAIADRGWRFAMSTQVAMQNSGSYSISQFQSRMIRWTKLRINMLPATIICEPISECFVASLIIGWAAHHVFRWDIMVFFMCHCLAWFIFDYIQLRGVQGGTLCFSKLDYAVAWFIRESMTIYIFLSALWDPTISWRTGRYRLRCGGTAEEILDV
Protocol: Enzyme activity was measured as described previously (9). Madin-Darby canine kidney (MDCK) cell homogenates (120 μg of protein) were incubated with uridine diphosphate-[^3H]glucose (100,000 cpm) and liposomes consisting of 85 μg of octanoylsphingosine, 570 μg of dioleoylphosphatidylcholine, and 100 μg of sodium sulfatide in a 200 μL reaction mixture and kept for 1 h at 37° C.

MDR1-MDCKII cells = assay: GCS inhibition (GlcCer production) in MDCKII cells stably expressing human MDR1; type: cell-based, canine; conditions: for IC50: Canis lupus familiaris, inhibition of GlcCer production in MDCKII cells stably expressing human MDR1, 24 h, read-out: MDR-MDCK IC50; for MDR/WT: ratio of MDR1-MDCKII IC50 divided by WT-MDCKII IC50
Protocol: (§1) Parental (WT-)MDCKII cells and MDCKII cells retrovirally transduced with human MDR-1 cDNA were obtained from the Netherlands Cancer Institute. Both cell lines were routinely maintained in medium consisting of Opti-MEM/F 12 (1:1), 5% FBS, 100 U/mL of penicillin, 100 μg/mL streptomycin and […] L-glutamine. MDCKII cells were newly thawed from frozen ampules every two months.
Stock solutions of water-insoluble glycosphingolipid inhibitors (100 mM) were prepared by dissolving each inhibitor into 100% ethanol as previously described (3). The inhibitor-ethanol solutions then were diluted 50× into 2 mM delipidated bovine serum albumin-phosphate buffered saline solution to make water-soluble glycosphingolipid inhibitor-bovine serum albumin complexes. The inhibitor-bovine serum album complexes were sterile-filtered and stored at −20° C. Prior to use, portions of the inhibitor-bovine serum albumin complexes were further diluted with Opti-F12 to make treatment solutions. Equal amounts of bovine serum albumin and ethanol were added into the control cultures. WT and MDR1-MDCKII cells (5×10^5) were seeded into 10-cm culture dishes containing 10 ml of Opti-F12 with 5% FBS. […]
(§2) Following inhibitor treatment, whole cellular lipids of wild type and MDR1-MDCKII cells were extracted as previously described in detail (10). Briefly, cells were washed with ice-cold phosphate buffered saline, fixed by methanol, and collected with rubber scraper. Chloroform was then added to yield a theoretical ratio of chloroform:methanol:water at 1:2:0.8 (v/v/v) to form a mono-phase. Cell debris and proteins were removed by centrifugation at 2200×g for 30 min. The supernatants were portioned by adding chloroform and 0.9% NaCl. The lower organic phases containing neutral glycosphingolipids lipids were washed with methanol and 0.9% NaCl, and subjected to base- and acid-hydrolysis (10). A portion of purified glycosphingolipids normalized to 100 nmol of total phospholipids was analyzed by high performance thin layer chromatography. The thin layer chromatography separations were processed twice. The plate pretreated with 1% sodium borate was first developed in a solvent system consisting of chloroform/methanol (98/2, v/v). After air drying, the plate was then developed in a solvent system containing chloroform/methanol/water (70/30/4, v/v/v). The levels of glucosylceramide were detected by charring with 8% cupric sulfate in 8% phosphoric acid, and quantified by densitometric scanning using ImageJ, NIH Image.

WT-MDCKII cells = assay: GCS inhibition (GlcCer production) in whole wild-type MDCKII cells; type: cell-based, canine; conditions: Canis lupus familiaris, MDCK-II; inhibition of GlcCer production in whole wild-type MDCKII cells, 24 h; read-out: WT-MDCK IC50
Protocol: as §1, with “months. Protein levels of MDR1 in MDR1-MDCKII cells were measured monthly, and MDR1-MDCKII cell passages were immediately terminated when a reduction of MDR1 levels was observed by Western blot using anti-human MDR1 monoclonal antibody (Abcam C219).” for “months.”
Stock solutions of water-insoluble glycosphingolipid inhibitors (100 mM) were prepared by dissolving each inhibitor into 100% ethanol as previously described (3). The inhibitor-ethanol solutions then were diluted 50× into 2 mM delipidated bovine serum albumin-phosphate buffered saline solution to make water-soluble glycosphingolipid inhibitor-bovine serum albumin complexes. The inhibitor-bovine serum album complexes were sterile-filtered and stored at −20° C. Prior to use, portions of the inhibitor-bovine serum albumin complexes were further diluted with Opti-F12 to make treatment solutions. Equal amounts of bovine serum albumin and ethanol were added into the control cultures. WT and MDR1-MDCKII cells (5×10^5) were seeded into 10-cm culture dishes containing 10 ml of Opti-F12 with 5% FBS. After 24 hours, the medium was replaced with fresh serum-free Opti-F12 medium, and cells were exposed to candidate GCS inhibitors at concentrations of 0, 1, 3, 10, 30, 100 and 300 nM for 24 hours.
as §2, with “Image. Image data was analyzed, and the IC50 of each inhibitor was calculated using GraphPad Prism (version 5.03).” for “Image.”

MDR1 = molecular target: T2, MDR1 (Homo sapiens, UniProt P08183); assay: [3H]Vinblastine transport in MDR1-MDCKII cells; type: cell-based; conditions: 1-100 μM, 2 h, relative to vehicle
T2 construct: host or cells: MDCKII (canine kidney) cells retrovirally transduced with human MDR-1 cDNA
T2 sequence (P08183 whole entry): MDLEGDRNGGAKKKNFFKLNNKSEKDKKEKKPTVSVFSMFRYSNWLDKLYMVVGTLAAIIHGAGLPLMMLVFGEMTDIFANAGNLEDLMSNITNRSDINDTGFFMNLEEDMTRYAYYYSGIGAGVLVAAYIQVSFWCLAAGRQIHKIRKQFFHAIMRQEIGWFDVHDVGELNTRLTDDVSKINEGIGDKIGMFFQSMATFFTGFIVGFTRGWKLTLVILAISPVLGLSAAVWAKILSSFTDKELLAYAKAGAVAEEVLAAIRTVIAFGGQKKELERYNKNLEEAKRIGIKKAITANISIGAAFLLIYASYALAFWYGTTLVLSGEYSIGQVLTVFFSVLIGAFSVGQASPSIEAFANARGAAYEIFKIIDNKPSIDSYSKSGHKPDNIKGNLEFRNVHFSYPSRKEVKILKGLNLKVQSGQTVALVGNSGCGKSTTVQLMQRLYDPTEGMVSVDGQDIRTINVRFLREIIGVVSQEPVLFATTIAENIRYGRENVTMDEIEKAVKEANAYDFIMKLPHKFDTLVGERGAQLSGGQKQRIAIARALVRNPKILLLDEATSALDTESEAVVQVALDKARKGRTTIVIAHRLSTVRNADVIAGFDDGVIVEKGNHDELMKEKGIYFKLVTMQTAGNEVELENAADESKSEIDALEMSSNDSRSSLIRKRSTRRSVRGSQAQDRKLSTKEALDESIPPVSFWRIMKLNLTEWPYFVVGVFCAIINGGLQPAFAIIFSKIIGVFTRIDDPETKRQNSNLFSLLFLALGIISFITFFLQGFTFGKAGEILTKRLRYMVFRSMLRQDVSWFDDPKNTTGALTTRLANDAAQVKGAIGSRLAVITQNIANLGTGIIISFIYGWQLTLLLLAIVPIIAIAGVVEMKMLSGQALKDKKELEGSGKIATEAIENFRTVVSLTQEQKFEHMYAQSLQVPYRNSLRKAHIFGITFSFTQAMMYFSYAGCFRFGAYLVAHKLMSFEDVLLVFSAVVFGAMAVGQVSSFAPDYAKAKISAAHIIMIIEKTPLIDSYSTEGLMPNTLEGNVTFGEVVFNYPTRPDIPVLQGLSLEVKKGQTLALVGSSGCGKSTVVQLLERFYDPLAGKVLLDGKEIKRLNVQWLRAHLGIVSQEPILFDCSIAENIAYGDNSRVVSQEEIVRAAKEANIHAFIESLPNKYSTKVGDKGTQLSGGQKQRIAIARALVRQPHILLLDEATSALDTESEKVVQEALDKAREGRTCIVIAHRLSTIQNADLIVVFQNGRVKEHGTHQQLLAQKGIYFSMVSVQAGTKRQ
Protocol: MDR1- and WT-MDCKII cells were grown to confluence on Transwell filters (12 well plates) in DMEM+10% FBS. […] Uptake was measured over 2 hours at 37° C. At that time, uptake was stopped by washing each side of the membrane 3× with ice-cold PBS. Vinblastine uptake into the cells, after correction for any remaining adherent extracellular contamination, was calculated as described previously (11). To investigate the effect of experimental drugs on MDR-mediated transport, those compounds were added to the apical chamber (1-100 μM) during vinblastine uptake and the uptake results expressed as a % of that with vehicle alone.

[2] = cited from earlier work

SMILES	IC50 [1] [nM]	IC50 (MDR1-MDCKII cells) [nM]	MDR/WT (MDR1-MDCKII cells)	IC50 (WT-MDCKII cells) [nM]	[3H]vinblastine uptake into MDR1-MDCKII cells (MDR1)	activity in the MDR1-MDCKII line (MDR1-MDCKII cells; in words)	effect on mouse body weight [2]
O=C(N[C@H](CN1CCCC1)[C@H](O)c1ccc2c(c1)OCCO2)OCc1ccccc1 [Compound 3b]	144	47.1	6.5	7.3	–	–	–
O=C(CCc1ccccc1)N[C@H](CN1CCCC1)[C@H](O)c1ccc2c(c1)OCCO2 [Compound 3c]	134	86.7	3.7	23.5	–	–	–
O=C(Cc1ccccc1)N[C@H](CN1CCCC1)[C@H](O)c1ccc2c(c1)OCCO2 [Compound 3d, N-((1R,2R)-1-(2,3-dihydrobenzo[b][1,4]dioxin-6-yl)-1-hydroxy-3-(pyrrolidin-1-yl)propan-2-yl)-2-phenylacetamido]	> 2000	–	–	–	–	–	–
O=C(CCCc1ccccc1)N[C@H](CN1CCCC1)[C@H](O)c1ccc2c(c1)OCCO2 [Compound 3e]	80	1440	5.7	254	–	–	–
O=C(/C=C/c1ccccc1)N[C@H](CN1CCCC1)[C@H](O)c1ccc2c(c1)OCCO2 [Compound 3f, N-((1R,2R)-1-(2,3-dihydrobenzo[b][1,4]dioxin-6-yl)-1-hydroxy-3-(pyrrolidin-1-yl)propan-2-yl)cinnamamide]	379	389	4.8	80.7	–	–	–
O=C(N[C@H](CN1CCCC1)[C@H](O)c1ccc2c(c1)OCCO2)C1CC1c1ccccc1 (stereo partly drawn) [Compound 3g, N-((1R,2R)-1-(2,3-dihydrobenzo[b][1,4]dioxin-6-yl)-1-hydroxy-3-(pyrrolidin-1-yl)propan-2-yl)-2-phenylcyclopropanecarboxamide]	90	78.1	2.9	27.3	–	–	–
O=C(N[C@H](CN1CCCC1)[C@H](O)c1ccc2c(c1)OCCO2)C1Cc2ccccc2C1 [Compound 3i, N-((1R,2R)-1-(2,3-dihydrobenzo[b][1,4]dioxin-6-yl)-1-hydroxy-3-(pyrrolidin-1-yl)propan-2-yl)-2,3-dihydro-1H-indene-2-carboxamide]	107	3210	21	151	dose dependent increase	loss of activity	–
CN(C(=O)CCc1ccccc1)[C@H](CN1CCCC1)[C@H](O)c1ccc2c(c1)OCCO2 [Compound 3j, N-((1R,2R)-1-(2,3-dihydrobenzo[b][1,4]dioxin-6-yl)-1-hydroxy-3-(pyrrolidin-1-yl)propan-2-yl)-N-methyl-3-phenylpropanamide]	158	1250	21	59.4	–	–	–
CCCCN1C[C@H](O)[C@@H](O)[C@H](O)[C@H]1CO [NB-DNJ, N-butyldeoxynojirimycin]	–	–	–	–	–	–	reduce mouse body weight
